Results reported in PubChem BioAssay AID1963433 (Molecular Pharmacology Branch, DTP, NCI, 2024).

System: 772245-204-R-J1-PDC complex spheroid growth
Assay: Anticancer human tumor 772245-204-R-J1-PDC patient-derived rhabdomyosarcoma cell line growth inhibition [Asc]
Settings: for IC50: curve of first compound; for viability, T/C: stronger effect = lower value
How it was run: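 Spheroid model: tumor line + HUVEC + hMSC. Single agents and combinations; top conc. at/near clinical Cmax (10 microM if undetermined), half-log dilutions. DMSO stocks at 800-fold test concentration.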

[1] = second compound 0.01 µM, first compound 0.0316 µM
[2] = second compound 0.01 µM, first compound 0.1 µM
[3] = second compound 0.01 µM, first compound 0.316 µM
[4] = second compound 0.01 µM, first compound 1 µM
[5] = second compound 0.0316 µM, first compound 0.0316 µM
[6] = second compound 0.0316 µM, first compound 0.1 µM
[7] = second compound 0.0316 µM, first compound 0.316 µM
[8] = second compound 0.0316 µM, first compound 1 µM
[9] = second compound 0.1 µM, first compound 0.0316 µM
[10] = second compound 0.1 µM, first compound 0.1 µM
[11] = second compound 0.1 µM, first compound 0.316 µM
[12] = second compound 0.1 µM, first compound 1 µM
[13] = second compound 0.316 µM, first compound 0.0316 µM
[14] = second compound 0.316 µM, first compound 0.1 µM
[15] = second compound 0.316 µM, first compound 0.316 µM
[16] = second compound 0.316 µM, first compound 1 µM
[17] = second compound 1 µM, first compound 0.0316 µM
[18] = second compound 1 µM, first compound 0.1 µM
[19] = second compound 1 µM, first compound 0.316 µM
[20] = second compound 1 µM, first compound 1 µM
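Also: compound exposure lasted seven days.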
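For viability, T/C in this document: 100% = DMSO vehicle control viability.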

IC50 (second compound 0.01 µM) [µM]	IC50 (second compound 0.0316 µM) [µM]	IC50 (second compound 0.1 µM) [µM]	IC50 (second compound 0.316 µM) [µM]	IC50 (second compound 1 µM) [µM]	Structure (SMILES)	viability, T/C [1] [%]	viability, T/C [2] [%]	viability, T/C [3] [%]	viability, T/C [4] [%]	viability, T/C [5] [%]	viability, T/C [6] [%]	viability, T/C [7] [%]	viability, T/C [8] [%]	viability, T/C [9] [%]	viability, T/C [10] [%]	viability, T/C [11] [%]	viability, T/C [12] [%]	viability, T/C [13] [%]	viability, T/C [14] [%]	viability, T/C [15] [%]	also measured
> 10	> 10	> 10	> 10	> 10	C=CC(=O)N1CCN(c2nc(=O)n(-c3c(C)ccnc3C(C)C)c3nc(-c4c(O)cccc4F)c(F)cc23)C(C)C1 (stereo not given) + CNC(C)C(=O)NC1CN(S(=O)(=O)c2cccc(S(=O)(=O)N3CCC4CCC(C(=O)NC(c5ccccc5)c5ccccc5)N4C(=O)C(NC(=O)C(C)NC)C3)c2)CCC2CCC(C(=O)NC(c3ccccc3)c3ccccc3)N2C1=O	98.5	84.7	91.6	100	94.4	93.6	101	92.7	92	88.9	108	97.2	94.5	95.5	97.6	viability, T/C (second compound 0.01 µM, first compound 3.16 µM): 92%; viability, T/C (second compound 0.01 µM, first compound 10 µM): 89%; viability, T/C (second compound 0.0316 µM, first compound 3.16 µM): 101%; viability, T/C (second compound 0.0316 µM, first compound 10 µM): 90.6%; viability, T/C (second compound 0.1 µM, first compound 3.16 µM): 88.8%; viability, T/C (second compound 0.1 µM, first compound 10 µM): 92.2%; viability, T/C [16]: 103%; viability, T/C (second compound 0.316 µM, first compound 3.16 µM): 95.7%; viability, T/C (second compound 0.316 µM, first compound 10 µM): 80.1%; viability, T/C [17]: 106%; viability, T/C [18]: 94.3%; viability, T/C [19]: 101%; viability, T/C [20]: 97.2%; viability, T/C (second compound 1 µM, first compound 3.16 µM): 88.9%; viability, T/C (second compound 1 µM, first compound 10 µM): 95%
> 1	> 1	> 1	> 1	> 1	O=C(c1ccc(F)c(F)c1Nc1ccc(I)cc1F)N1CC(O)([C@@H]2CCCCN2)C1 + CNC(C)C(=O)NC1CN(S(=O)(=O)c2cccc(S(=O)(=O)N3CCC4CCC(C(=O)NC(c5ccccc5)c5ccccc5)N4C(=O)C(NC(=O)C(C)NC)C3)c2)CCC2CCC(C(=O)NC(c3ccccc3)c3ccccc3)N2C1=O	93.3	84.8	97.9	105	95.2	93.2	101	95.4	90.1	87.6	103	77.9	96.8	99.8	103	viability, T/C (second compound 0.01 µM, first compound 0.00316 µM): 93.1%; viability, T/C (second compound 0.01 µM, first compound 0.01 µM): 85.4%; viability, T/C (second compound 0.0316 µM, first compound 0.00316 µM): 98.3%; viability, T/C (second compound 0.0316 µM, first compound 0.01 µM): 90.7%; viability, T/C (second compound 0.1 µM, first compound 0.00316 µM): 93.3%; viability, T/C (second compound 0.1 µM, first compound 0.01 µM): 84.8%; viability, T/C (second compound 0.316 µM, first compound 0.00316 µM): 91.7%; viability, T/C (second compound 0.316 µM, first compound 0.01 µM): 88.1%; viability, T/C [16]: 112%; viability, T/C (second compound 1 µM, first compound 0.00316 µM): 100%; viability, T/C (second compound 1 µM, first compound 0.01 µM): 89.7%; viability, T/C [17]: 88.8%; viability, T/C [18]: 92%; viability, T/C [19]: 94.5%; viability, T/C [20]: 97.6%
